Measurements from ChEMBL document CHEMBL1955733, “Optimization of 5-pyridazin-3-one phenoxypropylamines as potent, selective histamine H₃ receptor antagonists with potent cognition enhancing activity” (J Med Chem, 2012).
pIC50, pKi: −log10 of the molar value. In brackets after ≈: the same amount, converted by molar mass. Activity calls are given as the source filed them. The calls are words filed in the database; no cut-off is given here.

What was measured:
Histamine H3 receptor [1] = target: Histamine H3 receptor (Rattus norvegicus, UniProt Q9QYN8); assay: Displacement of [3H]NAMH from rat cloned […] expressed in CHO cells; type: cell-based
Sequence of Histamine H3 receptor (Rattus norvegicus, UniProt Q9QYN8) (Q9QYN8 whole entry): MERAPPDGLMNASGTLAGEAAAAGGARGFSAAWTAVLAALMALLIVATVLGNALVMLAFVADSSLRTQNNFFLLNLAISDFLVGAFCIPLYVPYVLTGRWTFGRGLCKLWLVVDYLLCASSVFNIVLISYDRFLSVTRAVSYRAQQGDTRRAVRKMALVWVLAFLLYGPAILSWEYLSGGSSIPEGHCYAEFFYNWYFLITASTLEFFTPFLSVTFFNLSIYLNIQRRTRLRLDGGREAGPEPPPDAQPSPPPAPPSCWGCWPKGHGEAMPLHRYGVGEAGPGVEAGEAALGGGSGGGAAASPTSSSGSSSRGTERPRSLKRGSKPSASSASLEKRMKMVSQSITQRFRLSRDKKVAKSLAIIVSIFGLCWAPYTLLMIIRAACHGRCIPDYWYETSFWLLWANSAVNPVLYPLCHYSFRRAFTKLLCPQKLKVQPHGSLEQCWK

[2] = Oral bioavailability in Sprague-Dawley rat at 5 mg/kg; type: ADME, organism-based; settings: in vivo
Histamine H3 receptor [3] = target: Histamine H3 receptor (Homo sapiens, UniProt Q9Y5N1); assay: Displacement of [3H]NAMH from human cloned […] expressed in CHO cells; type: cell-based
Sequence of Histamine H3 receptor (Homo sapiens, UniProt Q9Y5N1) (Q9Y5N1 whole entry): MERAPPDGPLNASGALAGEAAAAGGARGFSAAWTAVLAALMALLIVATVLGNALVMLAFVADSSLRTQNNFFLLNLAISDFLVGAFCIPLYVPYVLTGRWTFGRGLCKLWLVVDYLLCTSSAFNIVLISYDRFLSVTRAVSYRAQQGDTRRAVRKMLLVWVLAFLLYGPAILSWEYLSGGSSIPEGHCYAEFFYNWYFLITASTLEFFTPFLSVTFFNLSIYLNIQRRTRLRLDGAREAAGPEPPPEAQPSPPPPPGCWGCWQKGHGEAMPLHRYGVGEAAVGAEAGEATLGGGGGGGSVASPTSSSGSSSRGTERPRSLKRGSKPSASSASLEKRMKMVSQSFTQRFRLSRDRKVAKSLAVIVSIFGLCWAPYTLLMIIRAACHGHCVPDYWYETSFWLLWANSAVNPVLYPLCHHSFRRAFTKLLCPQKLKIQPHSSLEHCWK

[4] = Half life in Sprague-Dawley rat at 1 mg/kg, iv and 5 mg/kg, po; type: ADME, organism-based; settings: in vivo
[5] = Ratio of drug level in brain to plasma in Sprague-Dawley rat at 10 mg/kg, ip after 1 hr; type: ADME, organism-based; parameters: dose 10 mg/kg, route intraperitoneal; settings: brain and plasma, read-out: BPR
[6] = Clearance in Sprague-Dawley rat at 1 mg/kg, iv and 5 mg/kg, po; type: ADME, organism-based; settings: in vivo
[7] = Oral bioavailability in Sprague-Dawley rat at 10 mg/kg; type: ADME, organism-based; settings: in vivo
[8] = AUC in Beagle dog at 3 mg/kg, po; type: ADME, organism-based, Canis lupus familiaris; parameters: dose 3 mg/kg, route oral; settings: plasma
[9] = Oral bioavailability in Beagle dog at 3 mg/kg; type: ADME, organism-based, Canis lupus familiaris; settings: in vivo
Cytochrome P450 2C19 = Cytochrome P450 2C19 (Homo sapiens, UniProt P33261); assay: Inhibition of CYP2C19; type: ADME
Sequence of Cytochrome P450 2C19 (P33261 whole entry): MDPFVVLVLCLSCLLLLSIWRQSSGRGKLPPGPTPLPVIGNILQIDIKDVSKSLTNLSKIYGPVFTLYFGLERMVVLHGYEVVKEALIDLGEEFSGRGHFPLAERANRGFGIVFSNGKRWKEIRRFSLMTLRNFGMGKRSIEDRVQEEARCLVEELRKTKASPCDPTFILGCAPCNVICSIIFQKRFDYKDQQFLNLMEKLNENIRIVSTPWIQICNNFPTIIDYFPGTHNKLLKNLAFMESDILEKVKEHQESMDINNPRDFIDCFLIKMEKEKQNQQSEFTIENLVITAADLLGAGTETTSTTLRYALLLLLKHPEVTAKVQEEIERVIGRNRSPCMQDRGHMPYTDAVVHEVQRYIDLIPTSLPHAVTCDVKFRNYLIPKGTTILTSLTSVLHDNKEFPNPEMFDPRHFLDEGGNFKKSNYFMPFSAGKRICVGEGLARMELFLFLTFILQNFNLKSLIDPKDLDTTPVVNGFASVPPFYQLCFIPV

[10] = Volume of distribution in Beagle dog at 1 mg/kg, iv and 3 mg/kg, po; type: ADME, organism-based, Canis lupus familiaris; settings: in vivo
[11] = Half life in cynomolgus monkey at 1 mg/kg, iv and 3 mg/kg, po; type: ADME, organism-based, Macaca fascicularis; settings: in vivo
[12] = Cmax in Beagle dog at 1 mg/kg, iv and 3 mg/kg, po; type: ADME, organism-based, Canis lupus familiaris; settings: in vivo
Mus musculus = assay: Toxicity in mouse assessed as changes in behavioral and physiologic state up to 300 mg/kg, po by Irwin test; type: organism-based; parameters: dose 300 mg/kg, route oral; settings: in vivo
[13] = Solubility of the compound in water at pH 7.4; type: physicochemical
Cytochrome P450 3A4 = Cytochrome P450 3A4 (Homo sapiens, UniProt P08684); assay: Inhibition of CYP3A4; type: ADME
Sequence of Cytochrome P450 3A4 (P08684 whole entry): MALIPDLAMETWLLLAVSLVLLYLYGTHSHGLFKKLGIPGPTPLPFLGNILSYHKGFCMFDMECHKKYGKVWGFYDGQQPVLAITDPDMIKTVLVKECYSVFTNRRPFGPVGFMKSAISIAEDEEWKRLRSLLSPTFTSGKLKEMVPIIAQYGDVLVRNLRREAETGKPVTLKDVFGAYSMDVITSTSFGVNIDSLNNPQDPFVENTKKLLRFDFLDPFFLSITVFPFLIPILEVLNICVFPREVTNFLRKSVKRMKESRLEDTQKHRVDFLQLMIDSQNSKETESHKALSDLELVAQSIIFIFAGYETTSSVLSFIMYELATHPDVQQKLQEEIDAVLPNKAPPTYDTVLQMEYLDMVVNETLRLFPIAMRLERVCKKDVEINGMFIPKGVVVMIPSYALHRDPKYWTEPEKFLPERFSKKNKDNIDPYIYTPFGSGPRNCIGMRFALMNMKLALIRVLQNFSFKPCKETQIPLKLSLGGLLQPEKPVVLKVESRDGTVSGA

[14] = Cmax in Sprague-Dawley rat at 1 mg/kg, iv and 10 mg/kg, po; type: ADME, organism-based; settings: in vivo
[15] = Apparent permeability in human Caco2 cells; type: ADME, cell-based; settings: Caco-2
[16] = Clearance in cynomolgus monkey at 1 mg/kg, iv and 3 mg/kg, po; type: ADME, organism-based, Macaca fascicularis; settings: in vivo
[17] = Fraction unbound in Sprague-Dawley rat brain homogenate; type: ADME, tissue-based
[18] = Half life in human; type: ADME, organism-based; settings: in vivo
Cytochrome P450 1A2 = target: T1, Cytochrome P450 1A2 (Homo sapiens, UniProt P05177); assay: Inhibition of CYP1A2; type: ADME
T1 sequence (P05177 whole entry): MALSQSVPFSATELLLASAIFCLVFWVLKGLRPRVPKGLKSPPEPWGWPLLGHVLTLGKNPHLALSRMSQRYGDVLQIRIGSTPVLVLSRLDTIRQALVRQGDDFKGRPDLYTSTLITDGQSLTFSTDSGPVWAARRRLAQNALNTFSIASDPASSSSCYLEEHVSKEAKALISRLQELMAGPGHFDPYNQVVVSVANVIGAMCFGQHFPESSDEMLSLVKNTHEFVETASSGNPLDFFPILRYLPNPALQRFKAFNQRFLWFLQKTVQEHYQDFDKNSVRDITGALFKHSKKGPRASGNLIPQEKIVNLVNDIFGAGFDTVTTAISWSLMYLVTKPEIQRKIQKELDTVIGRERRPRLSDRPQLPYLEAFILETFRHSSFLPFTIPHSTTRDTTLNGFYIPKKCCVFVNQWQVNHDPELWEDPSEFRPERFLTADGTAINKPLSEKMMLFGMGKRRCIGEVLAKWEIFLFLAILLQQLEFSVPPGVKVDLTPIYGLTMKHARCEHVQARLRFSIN

[19] = Clearance in Beagle dog at 1 mg/kg, iv and 3 mg/kg, po; type: ADME, organism-based, Canis lupus familiaris; settings: in vivo
[20] = Half life in Sprague-Dawley rat at 1 mg/kg, iv and 10 mg/kg, po; type: ADME, organism-based; settings: in vivo
[21] = AUC in cynomolgus monkey at 3 mg/kg, po; type: ADME, organism-based, Macaca fascicularis; parameters: dose 3 mg/kg, route oral; settings: plasma
Rattus norvegicus [22] = assay: Cognitive effect in Sprague-Dawley rat social recognition model assessed as enhancement of short-term memory at 0.01 to 0.1 mg/kg, po measured after 120 mins; type: functional, organism-based
[23] = Plasma protein binding in Beagle dog; type: ADME, cell-free, Canis lupus familiaris; settings: read-out: PPB (converted)
[24] = Volume of distribution in cynomolgus monkey at 1 mg/kg, iv and 3 mg/kg, po; type: ADME, organism-based, Macaca fascicularis; settings: in vivo
[25] = AUC in Sprague-Dawley rat at 10 mg/kg, po; type: ADME, organism-based; parameters: dose 10 mg/kg, route oral; settings: plasma
[26] = Oral bioavailability in cynomolgus monkey at 3 mg/kg; type: ADME, organism-based, Macaca fascicularis; settings: in vivo
[27] = Cmax in cynomolgus monkey at 1 mg/kg, iv and 3 mg/kg, po; type: ADME, organism-based, Macaca fascicularis; settings: in vivo
Cytochrome P450 2C9 = Cytochrome P450 2C9 (Homo sapiens, UniProt P11712); assay: Inhibition of CYP2C9; type: ADME
Sequence of Cytochrome P450 2C9 (P11712 whole entry): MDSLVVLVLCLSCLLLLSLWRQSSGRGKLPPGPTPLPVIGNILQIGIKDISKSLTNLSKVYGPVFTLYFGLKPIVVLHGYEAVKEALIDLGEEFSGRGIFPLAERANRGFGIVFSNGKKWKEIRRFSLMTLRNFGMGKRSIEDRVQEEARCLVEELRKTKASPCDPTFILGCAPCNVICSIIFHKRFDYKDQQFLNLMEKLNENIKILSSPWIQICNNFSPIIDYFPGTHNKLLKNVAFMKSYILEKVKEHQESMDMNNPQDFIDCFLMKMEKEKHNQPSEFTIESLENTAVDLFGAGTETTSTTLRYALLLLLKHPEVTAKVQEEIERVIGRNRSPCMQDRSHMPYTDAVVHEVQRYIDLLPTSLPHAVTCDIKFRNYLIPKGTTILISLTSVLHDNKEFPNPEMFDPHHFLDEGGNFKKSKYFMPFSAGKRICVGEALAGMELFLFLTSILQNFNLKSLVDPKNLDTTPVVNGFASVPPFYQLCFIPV

[28] = Plasma protein binding in Sprague-Dawley rat; type: ADME, cell-free; settings: read-out: PPB (converted)
[29] = Half life in cynomolgus monkey at 1 mg/kg, iv; type: ADME, organism-based, Macaca fascicularis; parameters: dose 1 mg/kg, route intravenous; settings: in vivo
[30] = Clearance in Sprague-Dawley rat at 1 mg/kg, iv and 10 mg/kg, po; type: ADME, organism-based; settings: in vivo
[31] = Volume of distribution in Sprague-Dawley rat at 1 mg/kg, iv and 10 mg/kg, po; type: ADME, organism-based; settings: in vivo
[32] = Plasma protein binding in human; type: ADME, cell-free; settings: read-out: PPB (converted)
Salmonella typhimurium = assay: Mutagenic activity in Salmonella Typhimurium by Ames test; type: toxicity, organism-based; settings: salmonella enterica subsp. enterica serovar typhimurium
[33] = Half life in Beagle dog at 1 mg/kg, iv; type: ADME, organism-based, Canis lupus familiaris; parameters: dose 1 mg/kg, route intravenous; settings: in vivo
[34] = Solubility of the compound in water at pH 2; type: physicochemical
Rattus norvegicus [35] = assay: Inhibition of RAMH-induced dispogenia in po dosed Long Evans rat measured for 30 mins; type: functional
Cytochrome P450 2D6 = Cytochrome P450 2D6 (Homo sapiens, UniProt P10635); assay: Inhibition of CYP2D6; type: ADME
Sequence of Cytochrome P450 2D6 (P10635 whole entry): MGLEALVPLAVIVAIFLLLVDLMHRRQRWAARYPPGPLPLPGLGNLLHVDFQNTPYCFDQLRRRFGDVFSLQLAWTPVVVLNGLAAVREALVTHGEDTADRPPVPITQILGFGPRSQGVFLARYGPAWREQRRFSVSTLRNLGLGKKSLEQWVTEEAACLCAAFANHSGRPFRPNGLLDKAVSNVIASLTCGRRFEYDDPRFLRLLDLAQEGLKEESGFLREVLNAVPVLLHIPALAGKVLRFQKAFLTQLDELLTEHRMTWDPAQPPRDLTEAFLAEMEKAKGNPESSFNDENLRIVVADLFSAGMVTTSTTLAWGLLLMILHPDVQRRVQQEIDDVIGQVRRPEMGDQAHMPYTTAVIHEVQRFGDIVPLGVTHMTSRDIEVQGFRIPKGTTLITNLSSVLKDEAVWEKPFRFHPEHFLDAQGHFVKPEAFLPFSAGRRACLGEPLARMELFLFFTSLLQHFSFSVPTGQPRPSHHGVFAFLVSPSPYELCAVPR

[36] = Half life in Beagle dog at 1 mg/kg, iv and 3 mg/kg, po; type: ADME, organism-based, Canis lupus familiaris; settings: in vivo
[37] = Half life in Sprague-Dawley rat at 1 mg/kg, iv; type: ADME, organism-based; parameters: dose 1 mg/kg, route intravenous; settings: in vivo

Cc1nn(C)c(=O)cc1-c1ccc(OCCCN2CCC[C@H]2C)cc1 gave a pKi (Histamine H3 receptor [1]) of 8.19, a bioavailability [2] of 53% and a pKi (Histamine H3 receptor [3]) of 8.70. It also gave a half-life [4] of 1.2 h, a Kp at 1 h [5] of 1.7 and a clearance [6] of 67 mL/min/kg.

Compound C[C@H]1CCCN1CCCOc1ccc(-c2cnn(-c3ccccn3)c(=O)c2)cc1 has a bioavailability [2] of 52%, a half-life [4] of 2.8 h and a Kp at 1 h [5] of 1.7. The clearance [6] was 45 mL/min/kg.

For C[C@@H]1CCCN1CCCOc1ccc(-c2ccc(=O)[nH]n2)cc1 [IRDABISANT], the pKi (Histamine H3 receptor [1]) was 8.07, the bioavailability [7] was 83% and the Kp at 1 h [5] was 2.6.

In the case of Cc1n[nH]c(=O)cc1-c1ccc(OCCCN2CCCCC2)cc1, the pKi (Histamine H3 receptor [1]) was 7.64, the bioavailability [2] was 28% and the pKi (Histamine H3 receptor [3]) was 8.10. For the same compound, the half-life [4] was 0.8 h, the Kp at 1 h [5] was 1.3 and the clearance [6] was 30 mL/min/kg.

Cn1ncc(-c2ccc(OCCCN3CCCCCC3)cc2)cc1=O showed a pKi (Histamine H3 receptor [1]) of 7.66 and a pKi (Histamine H3 receptor [3]) of 8.09.

Compound O=c1cc(-c2ccc(OCCCN3CCCCC3)cc2)cn[nH]1 has a pKi (Histamine H3 receptor [1]) of 7.55, a bioavailability [2] of 42% and a pKi (Histamine H3 receptor [3]) of 7.72. For the same compound, the half-life [4] was 1.6 h, the Kp at 1 h [5] was 3 and the clearance [6] was 24 mL/min/kg.

For C[C@@H]1CCCN1CCCOc1ccc(-c2cnn(-c3ccccn3)c(=O)c2)cc1, the AUC [8] was 2400 ng·h/mL, the bioavailability [9] was 92% and the pIC50 (Cytochrome P450 2C19) was under 4.52. It also gave a Vd [10] of 5.9 L/kg, a half-life [11] of 6.5 h and a Cmax [12] of 417 ng/mL. For the same compound, the Activity (Mus musculus) was “Non-toxic”, the solubility [13] was 900 µg/mL (≈ 2300 µM) and the pIC50 (Cytochrome P450 3A4) was under 4.52. It also gave a Cmax [14] of 898 ng/mL, a Papp [15] of 13.7 ×10⁻⁶ cm/s and a clearance [16] of 21 mL/min/kg. For the same compound, the fraction unbound [17] was 0.39, the half-life [18] was over 0.667 h and the pIC50 (Cytochrome P450 1A2) was under 4.52. The clearance [19] was 19 mL/min/kg, the half-life [20] was 4.5 h and the AUC [21] was 2080 ng·h/mL. For the same compound, the Activity (Rattus norvegicus [22]) was “Active”, the fraction unbound [23] was 0.68 and the Vd [24] was 7.1 L/kg. It also gave a bioavailability [7] of 78%, an AUC [25] of 6800 ng·h/mL and a bioavailability [26] of 96%. For the same compound, the Cmax [27] was 326 ng/mL, the pIC50 (Cytochrome P450 2C9) was under 4.52 and the fraction unbound [28] was 0.55. For the same compound, the half-life [29] was 3.9 h, the clearance [30] was 20 mL/min/kg and the half-life [4] was 1.7 h. The Vd [31] was 3 L/kg, the fraction unbound [32] was 0.56 and the Activity (Salmonella typhimurium) was “Toxic”. The half-life [33] was 3.6 h, the Kp at 1 h [5] was 1.1 and the solubility [34] was 1400 µg/mL (≈ 3590 µM). The clearance [6] was 19 mL/min/kg, the inhibition (Rattus norvegicus [35]) was “Dose-dependent effect” and the ED50 (Rattus norvegicus [35]; 0.5 h) was 0.07 mg/kg. For the same compound, the pIC50 (Cytochrome P450 2D6) was under 4.52, the half-life [36] was 0.8 h and the half-life [37] was 1.7 h.

Cc1n[nH]c(=O)cc1-c1ccc(OCCCN2CCCCCC2)cc1 gave a pKi (Histamine H3 receptor [1]) of 8.12, a bioavailability [2] of 25% and a pKi (Histamine H3 receptor [3]) of 8.32. It also gave a half-life [4] of 1 h, a Kp at 1 h [5] of 1.2 and a clearance [6] of 54 mL/min/kg.

Work on Cc1cccc(-n2ncc(-c3ccc(OCCCN4CCC[C@H]4C)cc3)cc2=O)n1 yielded a pKi (Histamine H3 receptor [1]) of 8.36, a bioavailability [2] of 12% and a pKi (Histamine H3 receptor [3]) of 8.74. For the same compound, the half-life [4] was 2.2 h, the Kp at 1 h [5] was 1 and the clearance [6] was 23 mL/min/kg.

In the case of CC(C)n1ncc(-c2ccc(OCCCN3CCC[C@H]3C)cc2)cc1=O, the pKi (Histamine H3 receptor [1]) was 8.15, the bioavailability [2] was 1% and the pKi (Histamine H3 receptor [3]) was 8.57. The half-life [4] was 0.3 h, the Kp at 1 h [5] was 5.1 and the clearance [6] was 12 mL/min/kg.
